Measured values as given in patent publication US20060111305A1, “Metabolites of certain [1,4]diazepino[6,7,1-ij]quinoline derivatives and methods of preparation and use thereof” (Wyeth, priority 2004, published 2006).

Tests used:
[1] = tested on: cryopreserved human hepatocytes; experiment: Incubation of [14C]DCDQ with cryopreserved human hepatocytes; assay type: in vitro ADME; details: 10 or 50 μM DCDQ, 4 hours
Method: Vials containing cryopreserved human hepatocytes were thawed in a 37° C. water bath with gentle shaking until the ice was almost melted. The vials were removed from the water bath and gentle shaking continued at room temperature for 30-60 seconds until completely thawed. The hepatocyte suspensions from each vial were immediately transferred to pre-cooled 50 mL beakers on ice. To each beaker, 12 mL of ice-cold hepatocyte suspension media was added dropwise over one minute, with occasional, gentle shaking by hand to prevent the cells from settling. The cell suspensions were transferred to a 15 mL tube and centrifuged at 100 g force for 3 min at 4° C. (Model T21 super centrifuge, Sorvall). The supernatant was discarded and the pellets were re-suspended in 4 mL of ice-cold hepatocyte culture media. The cell suspensions contained approximately 3.1×10^6 viable hepatocytes/mL. The average viability was 76.0% as determined using Trypan Blue exclusion and a hemacytometer.
The cell suspensions were distributed into 12-well plates at 1.0 mL per well. Incubations were performed using pooled hepatocytes from two donors. [^14C]DCDQ in water was added to the hepatocyte suspension at a final concentration of 10 or 50 μM. Incubations were carried out at 37° C. for 4 hours in an incubator supplied with 5% CO2. At the end of the incubation, the reaction was stopped by the addition of 200 μL cold methanol to each well. The content of each well was transferred to a 15 mL centrifuge tube and sonicated for 30 seconds. After vortex mixing with 6 mL methanol and then centrifugation, the supernatant was transferred to a clean tube and evaporated to about 0.5 mL in a TurboVap evaporator. The residue was analyzed by HPLC and LC/MS.
A Waters model 2690 HPLC system (Waters Corp., Milford, Mass.) with a built-in autosampler was used for analysis. […] A variable wavelength UV detector set to monitor 250 nm and Flo-One β Model A525 radioactivity flow detector (Perkin Elmer) with a 250 μL LQTR flow cell were used for data acquisition. […]

[2] = Metabolites of DCDQ generated by liver microsomes and hepatocytes, LC/MS characterization (Table 6); assay type: in vitro ADME; details: MM mouse, RM rat, DM dog, HM human liver microsomes; HH human hepatocytes
Excerpt: An Agilent Model 1100 HPLC system (Agilent Technologies, Palo Alto, Calif.) including an autosampler and diode array UV detector was used for LC/MS analysis. The UV detector was set to monitor 200 to 400 nm. For selected LC/MS analysis, radiochromatograms were acquired using a β-Ram model 3 radioactivity flow detector (IN/US Systems Inc., Tampa, Fla.) equipped with a solid scintillant flow cell. Separations were accomplished on a Phenomenex Luna C18(2) column (2×150 mm, 5 μm) under the same conditions as described above.
The mass spectrometer used for metabolite characterization was a Micromass Q-TOF-2 quadrupole time-of-flight hybrid mass spectrometer ([…].). The mass spectrometer was equipped with an electrospray ionization (ESI) interface and operated in the positive ionization mode. Collision energy settings of 5 and 30 eV were used for full MS and MS/MS scans, respectively. Settings for the mass spectrometer are listed below.
Mass spectra were obtained by LC/MS and LC/MS/MS analysis for DCDQ and its metabolites.

[3] = Metabolite profiles of DCDQ in human plasma and urine by LC/MS (Table 33); assay type: in vivo, healthy human subjects; details: human plasma and urine, healthy subjects receiving DCDQ
Method: Drug administration and specimen collection were performed in a randomized, double-blinded, placebo-controlled, ascending single dose study of the safety, tolerability, pharmacokinetics, and pharmacodynamics of DCDQ administered orally to healthy subjects and subjects with schizophrenia and schizoaffective disorder. The specimens were stored at approximately −70° C. until analysis for metabolite profiles and for ratios of carbamoyl glucuronide (M6) to DCDQ.
Two subjects with medium and high exposure to DCDQ in the 25 mg multiple ascending dose study were also analyzed by LC/MS for metabolite profiles. The 8 hr plasma samples collected on day 1 and day 14 from subjects 9 and 41 were processed and analyzed as described below. No internal standard was added to the samples analyzed for metabolite profiles.
LC/MS System 1 was used for analysis of plasma and urine samples for metabolite characterization. The HPLC equipment used with this LC/MS System consisted of an Agilent Model 1100 HPLC system (Agilent Technologies, Palo Alto, Calif.) including an autosampler, binary pump and diode array UV detector. The UV detector was set to monitor 210 to 350 nm. The HPLC mobile phase consisted of 10 mM ammonium acetate, pH 4.5 (A) and methanol (B), and was delivered at 0.2 mL/min. The linear mobile phase gradient (HPLC Gradient 1) is shown below. During LC/MS sample analysis, up to 6 min of the initial flow was diverted away from the mass spectrometer prior to evaluation of metabolites.
The mass spectrometer used for metabolite characterization with LC/MS System 1 was a Finnigan LCQ-Deca ion trap mass spectrometer (Thermo Electron, San Jose, Calif.). This mass spectrometer was equipped with an electrospray ionization (ESI) interface and operated in the positive ionization mode. Settings for the LCQ mass spectrometer are listed below.
LC/MS System 2 was used to provide additional MS/MS data for characterization of DCDQ metabolites in urine. The HPLC equipment used with LC/MS System 2 consisted of a Waters model 2695 HPLC system (Waters Corp., Milford, Mass.). It was equipped with a built-in autosampler and a model 996 diode array UV detector. The UV detector was set to monitor 210-400 nm. The HPLC column, mobile phases, flow rate, diversion of flow away from the mass spectrometer and gradient were as described above for LC/MS System 1. The column temperature was 25° C.
The mass spectrometer used for metabolite characterization with LC/MS System 2 was a Micromass Quattro Micro triple quadrupole mass spectrometer (Waters Corp.). This mass spectrometer was equipped with an electrospray interface and operated in the positive ionization mode. Settings for this mass spectrometer are listed below.

## C1=NCCN2C[C@@H]3CCC[C@@H]3c3cccc1c32 [Metabolite P3, DCDQ imine]
[1]
  metabolite detected in human hepatocyte incubations: observed
[2]
  Source: MM, RM, DM, HM, HH
[3]
  Matrix (in which DCDQ / metabolite was characterized by LC/MS): P, U
